According to US10532066B2, “Surfactant lipids, compositions thereof, and uses thereof” (National Jewish Health, priority 2007, dated 2020):
Entries after “also recorded” stand apart in the source; their conditions may differ.

Experiments:
CD14 binding to LPS = target: T1, CD14 binding to LPS (Homo sapiens, UniProt P08571); assay: Phospholipid competition for CD14 binding to solid phase LPS; conditions: CD14 1 μg/ml, liposomes 20 μg/ml
T1 construct: purchased Cell Sciences Inc. (Canton, Mass.)
T1 sequence (P08571 20-345): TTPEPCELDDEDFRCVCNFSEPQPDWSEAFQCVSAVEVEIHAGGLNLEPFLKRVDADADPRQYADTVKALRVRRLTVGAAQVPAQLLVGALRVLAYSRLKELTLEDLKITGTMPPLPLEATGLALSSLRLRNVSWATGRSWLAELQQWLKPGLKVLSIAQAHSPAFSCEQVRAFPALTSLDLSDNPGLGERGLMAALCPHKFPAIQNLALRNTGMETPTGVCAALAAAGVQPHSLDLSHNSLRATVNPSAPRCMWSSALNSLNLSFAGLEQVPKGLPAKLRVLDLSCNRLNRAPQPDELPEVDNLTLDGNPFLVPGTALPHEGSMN
Protocol: FIG. 13. PG Inhibits CD14 binding to solid phase LPS. (A) Various types of PG were coated onto microtiter plates, and incubated with CD14 (1 μg/ml) at 37° C. for 1 h. […] Types of PG shown on the graph are: dilauroylphosphatidylglycerol (DLPG), dimyristoyl-phosphatidylglycerol (DMPG), dipalmitoylphosphatidylglycerol (DPPG), and 16:0/18:1; palmitoyl-oleoyl-phosphatidylglycerol (POPG). […] The binding of CD14 to LPS was detected using anti-CD14 monoclonal antibody. The ELISA based absorbance of CD14 bound to LPS was defined as 100%.

TLR3 = target: T2, TLR3 (Homo sapiens, UniProt O15455); assay: TLR agonist IL-8 production in BEAS2B epithelial cells, TLR3; type: cell-based; design: endogenous in cells; host or cells: BEAS2B; conditions: poly IC, 48 h
T2 sequence (O15455 24-904): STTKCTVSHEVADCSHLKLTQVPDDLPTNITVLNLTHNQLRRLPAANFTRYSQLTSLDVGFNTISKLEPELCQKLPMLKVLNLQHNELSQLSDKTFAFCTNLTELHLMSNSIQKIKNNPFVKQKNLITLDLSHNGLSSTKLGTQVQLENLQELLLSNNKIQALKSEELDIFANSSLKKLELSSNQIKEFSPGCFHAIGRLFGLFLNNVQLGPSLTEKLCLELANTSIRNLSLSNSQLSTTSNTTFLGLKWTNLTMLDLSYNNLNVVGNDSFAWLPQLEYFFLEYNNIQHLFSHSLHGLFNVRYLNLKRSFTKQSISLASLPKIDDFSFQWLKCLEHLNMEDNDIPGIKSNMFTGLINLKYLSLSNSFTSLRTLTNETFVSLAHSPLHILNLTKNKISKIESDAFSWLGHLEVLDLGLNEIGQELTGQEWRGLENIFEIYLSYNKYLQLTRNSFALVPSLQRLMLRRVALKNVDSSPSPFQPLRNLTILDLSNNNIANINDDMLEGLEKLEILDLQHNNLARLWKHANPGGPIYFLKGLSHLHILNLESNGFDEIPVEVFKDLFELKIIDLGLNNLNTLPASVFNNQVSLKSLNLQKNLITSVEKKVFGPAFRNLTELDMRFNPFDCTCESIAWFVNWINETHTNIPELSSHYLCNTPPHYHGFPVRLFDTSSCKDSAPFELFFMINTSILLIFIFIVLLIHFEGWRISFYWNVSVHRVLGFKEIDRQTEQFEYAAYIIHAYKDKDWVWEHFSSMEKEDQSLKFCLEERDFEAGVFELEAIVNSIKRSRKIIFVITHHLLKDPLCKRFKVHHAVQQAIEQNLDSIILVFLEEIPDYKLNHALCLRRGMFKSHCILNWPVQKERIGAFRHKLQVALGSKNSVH
Protocol: (§1) In this experiment, multiple TLRs were stimulated with defined TLR agonists for 48 h, and the IL-8 production was measured. In each case, the maximal stimulation by agonist is set at 100% and the antagonism by POPG or PI is expressed as the relative % response. The Controls consist of no treatment, or treatment with POPG, or phosphatidylcholine (POPC), or phosphatidylinositol (PI), in the absence of agonist as indicated. The agonists for the TLRs consist of Pam3Cys for TLR1/2, Mycoplasma pneumoniae membranes as an agonist for TLR2, Mycoplasma fermentans derived MALP2 as an agonist for TLR 2/6, double stranded RNA (poly IC) for TLR3, and bacterial flagellin (Fla) as an agonist for TLR5.
(§2) Monolayers of BEAS2B cells were challenged with the TLR1/2 agonist, Pam3Cys (25 ug/ml); the TLR 2/6 agonist MALP2 (10 ng/ml); the TLR2 agonist mycoplasma membrane (Mem) (1 ug/ml); the TLR3 agonist, poly I:C (0.1 ug/ml); and the TLR5 agonist, flagellin (100 ng/ml). For each agonist parallel incubations were performed containing 200 ug/ml POPG as liposomes, or 200 ug/ml POPG as nanodises as indicated.

TLR5 = target: T3, TLR5 (Homo sapiens, UniProt O60602); assay: TLR agonist IL-8 production in BEAS2B epithelial cells, TLR5; type: cell-based; conditions: flagellin, 48 h
T3 construct: endogenous in cells; host or cells: BEAS2B
T3 sequence (O60602 21-858): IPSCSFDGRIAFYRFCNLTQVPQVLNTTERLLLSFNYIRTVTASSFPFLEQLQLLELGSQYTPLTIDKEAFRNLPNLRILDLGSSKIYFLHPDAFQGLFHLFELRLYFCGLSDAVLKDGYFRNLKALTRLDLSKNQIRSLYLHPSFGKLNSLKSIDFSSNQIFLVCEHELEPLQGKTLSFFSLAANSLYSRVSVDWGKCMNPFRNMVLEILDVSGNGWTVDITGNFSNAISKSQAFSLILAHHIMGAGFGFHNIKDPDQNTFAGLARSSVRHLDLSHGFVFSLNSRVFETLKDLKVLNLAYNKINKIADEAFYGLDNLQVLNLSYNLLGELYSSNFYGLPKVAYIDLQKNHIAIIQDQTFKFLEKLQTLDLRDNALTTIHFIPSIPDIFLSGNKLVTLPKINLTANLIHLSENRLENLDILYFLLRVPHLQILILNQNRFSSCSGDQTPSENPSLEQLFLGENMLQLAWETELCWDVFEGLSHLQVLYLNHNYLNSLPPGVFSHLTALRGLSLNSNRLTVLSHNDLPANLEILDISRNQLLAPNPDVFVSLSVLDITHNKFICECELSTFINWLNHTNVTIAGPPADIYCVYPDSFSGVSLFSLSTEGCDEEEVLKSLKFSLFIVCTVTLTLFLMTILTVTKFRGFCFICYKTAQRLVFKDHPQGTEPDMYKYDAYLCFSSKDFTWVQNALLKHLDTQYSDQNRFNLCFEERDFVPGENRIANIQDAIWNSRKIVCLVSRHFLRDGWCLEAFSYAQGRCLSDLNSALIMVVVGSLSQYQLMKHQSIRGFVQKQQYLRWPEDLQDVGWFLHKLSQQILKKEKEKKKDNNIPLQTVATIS
Protocol: as §1, §2

RAW264.7 cells = assay: BODIPY-LPS association with RAW264.7 macrophages (FACScan); type: cell-based; conditions: BODIPY-LPS 1 μg/ml, liposomes 200 μg/ml, 4 h
Protocol: FIG. 11. Anionic phospholipids block BODIPY-LPS association with RAW264.7 macrophages. Liposomes were prepared by bath-sonication at room temperature for 30 min. RAW264.7 cells (10^6/tube) were incubated either without or with 1 μg/ml BODIPY-LPS in the presence or absence of liposomes (200 μg/ml) at 4° C. for 4 h. Subsequently the cells were washed by centrifugation and the cell associated fluorescence was quantified by FACScan. […] In panel B the mean fluorescence intensity (MFI) ratio of cells plus LPS/cells without LPS is plotted against different phospholipid treatments. Values shown in B are means±SE for three independent experiments with duplicate determinations in each experiment. Significance—* p<0.05, ** p<0.01
RAW264.7 cells (10^6) were incubated with BODIPY-LPS (1 μg/ml) either with or without phospholipid liposomes (200 μg/ml) at 4° C. for 4 h. When liposomes were added, […] preceded the addition of fluorescent LPS. After the cells were washed with PBS by centrifugation, cell adherent fluorescence was determined using FACScan. Macrophages were counted for 20,000 cells and the graph was made by CellQuest software.

Row | Molecule | inhibition of CD14 binding to solid phase LPS (CD14 binding to LPS) | activity of TLR3 (IL-8 production) (TLR3) | activity of TLR5 (IL-8 production) (TLR5) | binding of BODIPY-LPS to the surface of macrophages (RAW264.7 cells)
1 | CCCCCCCCCCCCCC(=O)OCC(COP(=O)(O)OCC(O)CO)OC(=O)CCCCCCCCCCCCC (stereo not shown) [DMPG, dimyristoyl-phosphatidylglycerol] | most effective inhibitors | – | – | –
2 | CCCCCCCCCCCCCCCC(=O)OCC(COP(=O)(O)OCC(O)CO)OC(=O)CCCCCCCCCCCCCCC (stereo not shown) [DPPG, dipalmitoyl-phosphatidylglycerol, reference compound] | weakly competes | – | – | –
3 | CCCCCCCC/C=C\CCCCCCCC(=O)O[C@H](COC(=O)CCCCCCCCCCCCCCC)COP(=O)(O)OCC(O)CO (stereo partly shown) [POPG, palmitoyl-oleoyl-phosphatidylglycerol] | almost completely inhibits; also recorded: most effective inhibitors | inhibit | not | blocks the binding
4 | phosphatidylinositol [PI] | fails to compete | inhibit | not | blocks the binding
